Measurements reported in ChEMBL document CHEMBL4028801, “A multifactorial approach to hepatobiliary transporter assessment enables improved therapeutic compound development” (Toxicol Sci, 2013).

How the values were obtained:
[1] = molecular target: ATP-binding cassette sub-family C member 3 (Homo sapiens, UniProt O15438); assay: Inhibition of human MRP3 overexpressed in Sf9 insect cell membrane vesicles assessed as uptake of [3H]-estradiol-17beta-D-glucuronide in presence of ATP and GSH measured after 10 mins by membrane vesicle transport assay; type: ADME, cell-based
[2] = molecular target: ATP-binding cassette sub-family C member 2 (Homo sapiens, UniProt Q92887); assay: Inhibition of human MRP2 overexpressed in Sf9 cell membrane vesicles assessed as uptake of [3H]-estradiol-17beta-D-glucuronide in presence of ATP and GSH measured after 20 mins by membrane vesicle transport assay
[3] = molecular target: T1, ATP-binding cassette sub-family C member 4 (Homo sapiens, UniProt O15439); assay: Inhibition of human MRP4 overexpressed in Sf9 cell membrane vesicles assessed as uptake of [3H]-estradiol-17beta-D-glucuronide in presence of ATP and GSH measured after 20 mins by membrane vesicle transport assay; type: ADME, cell-based
T1 sequence (O15439 whole entry): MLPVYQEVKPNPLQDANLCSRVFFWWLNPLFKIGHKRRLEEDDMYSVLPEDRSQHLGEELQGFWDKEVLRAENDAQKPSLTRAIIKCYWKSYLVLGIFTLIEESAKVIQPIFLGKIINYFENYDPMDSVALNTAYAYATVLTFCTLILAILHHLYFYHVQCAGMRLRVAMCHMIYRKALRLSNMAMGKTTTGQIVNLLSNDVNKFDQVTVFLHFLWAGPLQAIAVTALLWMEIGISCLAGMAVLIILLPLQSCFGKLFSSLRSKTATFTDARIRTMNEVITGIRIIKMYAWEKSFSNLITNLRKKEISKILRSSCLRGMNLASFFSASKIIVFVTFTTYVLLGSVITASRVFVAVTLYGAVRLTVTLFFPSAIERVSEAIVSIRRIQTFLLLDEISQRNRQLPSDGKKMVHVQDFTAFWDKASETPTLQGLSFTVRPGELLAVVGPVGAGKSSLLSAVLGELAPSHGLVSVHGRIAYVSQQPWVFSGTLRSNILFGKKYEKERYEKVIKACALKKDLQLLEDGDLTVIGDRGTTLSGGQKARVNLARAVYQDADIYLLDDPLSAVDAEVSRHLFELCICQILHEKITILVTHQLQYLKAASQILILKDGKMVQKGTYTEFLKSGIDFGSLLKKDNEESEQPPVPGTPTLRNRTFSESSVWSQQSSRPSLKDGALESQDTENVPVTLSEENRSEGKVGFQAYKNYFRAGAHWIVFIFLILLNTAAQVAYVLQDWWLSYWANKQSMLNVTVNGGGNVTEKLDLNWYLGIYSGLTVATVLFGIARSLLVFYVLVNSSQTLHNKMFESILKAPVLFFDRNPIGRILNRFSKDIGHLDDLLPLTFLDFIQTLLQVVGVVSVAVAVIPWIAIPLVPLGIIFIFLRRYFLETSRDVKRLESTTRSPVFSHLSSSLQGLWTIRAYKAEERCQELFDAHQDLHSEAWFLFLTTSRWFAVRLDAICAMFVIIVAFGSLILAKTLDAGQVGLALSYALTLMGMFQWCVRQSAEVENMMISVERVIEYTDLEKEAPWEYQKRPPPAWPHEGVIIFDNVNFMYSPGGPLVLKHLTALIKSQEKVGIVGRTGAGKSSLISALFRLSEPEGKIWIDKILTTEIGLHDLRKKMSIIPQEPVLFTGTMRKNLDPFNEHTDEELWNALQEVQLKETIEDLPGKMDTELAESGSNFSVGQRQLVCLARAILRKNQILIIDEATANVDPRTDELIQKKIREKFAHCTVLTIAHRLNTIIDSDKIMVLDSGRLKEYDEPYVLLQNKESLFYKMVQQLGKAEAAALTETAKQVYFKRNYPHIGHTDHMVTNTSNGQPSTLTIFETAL

[4] = system: Homo sapiens; assay: Drug concentration at steady state in human at 5 to 20 mg, iv after 24 hrs; type: ADME, organism-based; conditions: in vivo
[5] = AUC in human at 5 to 20 mg, iv after 24 hrs; type: ADME, organism-based; conditions: in vivo
[6] = Drug concentration at steady state in human at 15 to 120 mg, po QD after 24 hrs; type: ADME, organism-based; conditions: in vivo, read-out: Css
[7] = molecular target: Bile salt export pump (Homo sapiens, UniProt O95342); assay: Inhibition of human BSEP overexpressed in Sf9 cell membrane vesicles assessed as uptake of [3H]-taurocholate in presence of ATP measured after 15 to 20 mins by membrane vesicle transport assay; type: ADME, cell-based
[8] = Ratio of drug concentration at steady state in human at 15 to 120 mg, po QD after 24 hrs to IC50 for human BSEP overexpressed in Sf9 insect cells; type: ADME, organism-based; conditions: in vivo
[9] = Ratio of drug concentration at steady state in human at 15 to 120 mg, po QD after 24 hrs to IC50 for human MRP4 overexpressed in Sf9 insect cells; type: ADME, organism-based; conditions: in vivo
[10] = Ratio of drug concentration at steady state in human at 15 to 120 mg, po QD after 24 hrs to IC50 for human MRP3 overexpressed in Sf9 insect cells; type: ADME, organism-based; conditions: in vivo
[11] = AUC in human at 15 to 120 mg, po QD after 24 hrs; type: ADME, organism-based; conditions: in vivo
[12] = AUC in human at 20 to 100 mg, po QD or 60 mg, po BID after 12 hrs; type: ADME, organism-based; conditions: in vivo
[13] = Drug concentration at steady state in human at 20 to 100 mg, po QD or 60 mg, po BID after 12 hrs; type: ADME, organism-based; conditions: in vivo, read-out: Css
[14] = Ratio of drug concentration at steady state in human at 20 to 100 mg, po QD or 60 mg, po BID after 12 hrs to IC50 for human BSEP overexpressed in Sf9 insect cells; type: ADME, organism-based; conditions: in vivo
[15] = Drug concentration at steady state in human at 400 to 800 mg, po QD after 24 hrs; type: ADME, organism-based; conditions: in vivo, read-out: Css
[16] = AUC in human at 400 to 800 mg, po QD after 24 hrs; type: ADME, organism-based; conditions: in vivo
[17] = Ratio of drug concentration at steady state in human at 400 to 800 mg, po QD after 24 hrs to IC50 for human BSEP overexpressed in Sf9 insect cells; type: ADME, organism-based; conditions: in vivo
[18] = Ratio of drug concentration at steady state in human at 20 to 40 mg, po QD after 24 hrs to IC50 for human BSEP overexpressed in Sf9 insect cells; type: ADME, organism-based; conditions: in vivo
[19] = Ratio of drug concentration at steady state in human at 20 to 40 mg, po QD after 24 hrs to IC50 for human MRP4 overexpressed in Sf9 insect cells; type: ADME, organism-based; conditions: in vivo
[20] = Ratio of drug concentration at steady state in human at 20 to 40 mg, po QD after 24 hrs to IC50 for human MRP3 overexpressed in Sf9 insect cells; type: ADME, organism-based; conditions: in vivo
[21] = AUC in human at 20 to 25 mg/kg, po TID after 8 hrs; type: ADME, organism-based; conditions: in vivo
[22] = Ratio of drug concentration at steady state in human at 20 to 25 mg/kg, po TID after 8 hrs to IC50 for human BSEP overexpressed in Sf9 insect cells; type: ADME, organism-based; conditions: in vivo
[23] = Drug concentration at steady state in human at 20 to 25 mg/kg, po TID after 8 hrs; type: ADME, organism-based; conditions: in vivo, read-out: Css

Sequence of ATP-binding cassette sub-family C member 3 (O15438 whole entry): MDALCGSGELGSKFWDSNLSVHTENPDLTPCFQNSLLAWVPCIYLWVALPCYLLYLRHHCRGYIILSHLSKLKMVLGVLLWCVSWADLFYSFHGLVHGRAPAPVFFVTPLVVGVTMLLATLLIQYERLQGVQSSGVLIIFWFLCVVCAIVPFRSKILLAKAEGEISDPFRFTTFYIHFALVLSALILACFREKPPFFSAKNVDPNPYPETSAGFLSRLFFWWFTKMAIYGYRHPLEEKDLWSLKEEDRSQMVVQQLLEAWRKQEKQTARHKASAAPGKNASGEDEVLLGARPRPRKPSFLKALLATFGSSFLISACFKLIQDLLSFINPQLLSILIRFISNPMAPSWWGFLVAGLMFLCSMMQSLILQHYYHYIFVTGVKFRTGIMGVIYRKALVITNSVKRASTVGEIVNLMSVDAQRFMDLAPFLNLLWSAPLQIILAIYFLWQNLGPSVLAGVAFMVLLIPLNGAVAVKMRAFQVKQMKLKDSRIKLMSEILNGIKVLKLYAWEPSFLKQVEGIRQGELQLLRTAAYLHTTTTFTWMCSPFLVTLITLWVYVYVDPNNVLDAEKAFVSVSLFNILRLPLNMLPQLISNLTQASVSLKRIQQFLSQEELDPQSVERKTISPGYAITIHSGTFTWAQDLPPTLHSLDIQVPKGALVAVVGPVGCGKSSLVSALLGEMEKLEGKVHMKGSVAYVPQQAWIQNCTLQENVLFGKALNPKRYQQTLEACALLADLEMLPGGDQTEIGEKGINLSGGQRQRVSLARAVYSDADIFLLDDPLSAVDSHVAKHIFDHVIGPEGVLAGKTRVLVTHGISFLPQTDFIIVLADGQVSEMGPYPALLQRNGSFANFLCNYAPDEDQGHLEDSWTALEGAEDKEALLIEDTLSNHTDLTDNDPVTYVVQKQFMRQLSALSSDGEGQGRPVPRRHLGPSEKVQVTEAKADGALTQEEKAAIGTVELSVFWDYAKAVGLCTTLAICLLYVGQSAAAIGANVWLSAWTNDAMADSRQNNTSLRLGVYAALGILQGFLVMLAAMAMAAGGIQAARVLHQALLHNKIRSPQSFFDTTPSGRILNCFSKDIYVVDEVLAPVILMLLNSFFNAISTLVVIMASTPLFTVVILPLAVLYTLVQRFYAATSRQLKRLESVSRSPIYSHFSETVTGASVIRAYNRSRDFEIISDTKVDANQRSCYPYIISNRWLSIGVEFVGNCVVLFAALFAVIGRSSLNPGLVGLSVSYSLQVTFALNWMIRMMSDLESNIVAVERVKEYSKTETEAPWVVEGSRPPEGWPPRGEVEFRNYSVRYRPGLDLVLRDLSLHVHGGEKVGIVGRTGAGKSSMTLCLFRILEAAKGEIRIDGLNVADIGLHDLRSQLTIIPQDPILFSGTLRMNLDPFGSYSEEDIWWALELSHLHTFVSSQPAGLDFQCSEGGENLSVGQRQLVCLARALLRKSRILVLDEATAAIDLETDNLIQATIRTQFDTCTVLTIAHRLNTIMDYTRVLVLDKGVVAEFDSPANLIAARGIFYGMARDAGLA
Sequence of Bile salt export pump (O95342 whole entry): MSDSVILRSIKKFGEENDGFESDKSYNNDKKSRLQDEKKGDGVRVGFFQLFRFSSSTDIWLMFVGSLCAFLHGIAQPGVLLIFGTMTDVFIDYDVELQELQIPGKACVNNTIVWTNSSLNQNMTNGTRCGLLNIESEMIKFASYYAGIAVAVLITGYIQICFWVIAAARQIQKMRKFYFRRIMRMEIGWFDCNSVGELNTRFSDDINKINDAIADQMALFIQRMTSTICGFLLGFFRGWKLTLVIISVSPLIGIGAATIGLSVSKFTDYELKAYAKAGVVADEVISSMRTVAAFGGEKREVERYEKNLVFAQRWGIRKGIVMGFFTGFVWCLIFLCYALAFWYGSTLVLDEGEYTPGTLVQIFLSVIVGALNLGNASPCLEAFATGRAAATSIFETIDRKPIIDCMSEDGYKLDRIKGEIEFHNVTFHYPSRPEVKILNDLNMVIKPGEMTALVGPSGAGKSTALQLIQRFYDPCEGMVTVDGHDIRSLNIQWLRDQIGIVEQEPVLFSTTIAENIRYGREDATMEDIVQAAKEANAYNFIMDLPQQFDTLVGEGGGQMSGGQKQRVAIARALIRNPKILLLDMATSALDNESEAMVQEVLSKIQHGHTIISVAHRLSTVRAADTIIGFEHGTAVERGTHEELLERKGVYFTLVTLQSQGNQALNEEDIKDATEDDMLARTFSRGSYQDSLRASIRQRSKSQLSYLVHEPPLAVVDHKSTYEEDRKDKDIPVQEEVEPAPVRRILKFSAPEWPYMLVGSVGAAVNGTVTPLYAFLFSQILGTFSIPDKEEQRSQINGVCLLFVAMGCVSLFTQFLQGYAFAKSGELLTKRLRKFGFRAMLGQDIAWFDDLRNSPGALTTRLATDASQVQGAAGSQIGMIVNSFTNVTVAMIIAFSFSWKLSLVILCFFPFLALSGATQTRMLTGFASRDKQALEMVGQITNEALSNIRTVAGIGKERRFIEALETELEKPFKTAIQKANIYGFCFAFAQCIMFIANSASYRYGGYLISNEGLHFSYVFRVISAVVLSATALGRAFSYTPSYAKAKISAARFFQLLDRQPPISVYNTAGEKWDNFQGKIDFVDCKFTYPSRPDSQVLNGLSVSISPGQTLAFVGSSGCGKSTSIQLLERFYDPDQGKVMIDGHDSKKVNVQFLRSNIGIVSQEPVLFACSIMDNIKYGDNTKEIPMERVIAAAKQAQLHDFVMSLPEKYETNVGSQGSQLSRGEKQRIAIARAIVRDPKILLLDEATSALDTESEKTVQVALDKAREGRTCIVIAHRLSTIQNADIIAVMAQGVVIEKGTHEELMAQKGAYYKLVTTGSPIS
Sequence of ATP-binding cassette sub-family C member 2 (Q92887 whole entry): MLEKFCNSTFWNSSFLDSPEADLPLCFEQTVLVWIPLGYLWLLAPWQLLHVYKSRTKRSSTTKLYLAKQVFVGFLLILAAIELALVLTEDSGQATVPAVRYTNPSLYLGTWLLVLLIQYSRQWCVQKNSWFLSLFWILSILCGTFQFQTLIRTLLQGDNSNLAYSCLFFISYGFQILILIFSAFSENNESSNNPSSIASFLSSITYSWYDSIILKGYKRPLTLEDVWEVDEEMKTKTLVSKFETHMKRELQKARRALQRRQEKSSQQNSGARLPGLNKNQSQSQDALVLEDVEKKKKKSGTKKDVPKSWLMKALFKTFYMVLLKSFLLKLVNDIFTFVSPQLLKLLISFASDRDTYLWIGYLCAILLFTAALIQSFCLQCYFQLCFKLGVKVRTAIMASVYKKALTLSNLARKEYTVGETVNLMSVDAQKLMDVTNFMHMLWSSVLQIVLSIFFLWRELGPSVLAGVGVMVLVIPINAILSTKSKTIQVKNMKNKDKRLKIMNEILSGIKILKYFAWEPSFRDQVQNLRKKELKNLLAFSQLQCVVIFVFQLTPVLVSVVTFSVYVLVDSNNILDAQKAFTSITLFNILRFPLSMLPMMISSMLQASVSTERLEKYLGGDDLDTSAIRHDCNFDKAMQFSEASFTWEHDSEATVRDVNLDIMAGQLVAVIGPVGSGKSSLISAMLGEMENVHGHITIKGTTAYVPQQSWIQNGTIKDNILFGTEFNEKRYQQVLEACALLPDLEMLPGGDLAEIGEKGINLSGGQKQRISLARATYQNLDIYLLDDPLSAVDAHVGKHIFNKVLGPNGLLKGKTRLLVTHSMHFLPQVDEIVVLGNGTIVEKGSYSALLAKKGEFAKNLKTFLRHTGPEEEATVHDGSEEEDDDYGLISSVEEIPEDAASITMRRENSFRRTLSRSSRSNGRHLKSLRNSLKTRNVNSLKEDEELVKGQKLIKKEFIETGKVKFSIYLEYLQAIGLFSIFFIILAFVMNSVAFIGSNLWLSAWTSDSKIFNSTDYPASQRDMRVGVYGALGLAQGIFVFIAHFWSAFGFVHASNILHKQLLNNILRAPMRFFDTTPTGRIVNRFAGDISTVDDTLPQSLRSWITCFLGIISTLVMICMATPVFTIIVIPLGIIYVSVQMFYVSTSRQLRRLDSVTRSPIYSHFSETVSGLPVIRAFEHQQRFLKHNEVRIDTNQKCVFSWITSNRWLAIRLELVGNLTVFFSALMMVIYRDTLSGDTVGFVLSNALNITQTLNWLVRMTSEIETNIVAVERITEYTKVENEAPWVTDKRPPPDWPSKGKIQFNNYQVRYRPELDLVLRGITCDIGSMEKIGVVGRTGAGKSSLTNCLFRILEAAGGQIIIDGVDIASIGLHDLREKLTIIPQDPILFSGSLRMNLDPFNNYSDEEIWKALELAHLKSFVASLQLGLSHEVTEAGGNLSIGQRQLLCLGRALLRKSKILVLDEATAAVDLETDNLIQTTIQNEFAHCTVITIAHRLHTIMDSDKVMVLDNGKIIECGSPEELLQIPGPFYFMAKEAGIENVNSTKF

Row | Compound | IC50 [1] | IC50 [2] | IC50 [3] | IC50 [7] | also measured
1 | CO[C@H]1C[C@@H]2CC[C@@H](C)[C@@](O)(O2)C(=O)C(=O)N2CCCC[C@H]2C(=O)O[C@H]([C@H](C)C[C@@H]2CC[C@@H](OC(=O)C(C)(CO)CO)[C@H](OC)C2)CC(=O)[C@H](C)/C=C(\C)[C@@H](O)[C@@H](OC)C(=O)[C@H](C)C[C@H](C)/C=C/C=C/C=C/1C [TEMSIROLIMUS] | 71.9 µM | 17.6 µM | 44 µM |  | Css [4]: 79 nM; AUC at 24 h [5]: 1.91 µM·h
2 | COc1ccc2c(c1)C(=O)N(CCc1ccc(S(=O)(=O)NC(=O)NC3CCCCC3)cc1)C(=O)C2(C)C [GLIQUIDONE] | 23.9 µM |  | 6.3 µM | 11.6 µM | concentration at 24 h [6]: 403 nM; Ratio [8]: 0.035; Ratio [9]: 0.064; Ratio [10]: 0.017; AUC at 24 h [11]: 9.67 µM·h
3 | COCCCOc1ccnc(C[S+]([O-])c2nc3ccccc3[n-]2)c1C.[Na+] (stereo not given) [RABEPRAZOLE SODIUM] | > 133 µM | > 133 µM | > 133 µM | 33.9 µM | AUC at 12 h [12]: 14.5 µM·h; concentration at 12 h [13]: 1210 nM; Ratio [14]: 0.036
4 | CC(=O)O[C@]1(C(C)=O)CC[C@H]2[C@@H]3C=C(C)C4=CC(=O)CC[C@]4(C)[C@H]3CC[C@@]21C [MEGESTROL ACETATE] | > 133 µM | > 133 µM | > 133 µM | 17.8 µM | concentration at 24 h [15]: 1490 nM; AUC at 24 h [16]: 35.8 µM·h; Ratio [17]: 0.084
5 | CCCc1nc(C(C)(C)O)c(C(=O)OCc2oc(=O)oc2C)n1Cc1ccc(-c2ccccc2-c2nnn[nH]2)cc1 [OLMESARTAN MEDOXOMIL] | 2 µM |  | 28.5 µM | 4.73 µM | Ratio [18]: 0.081; Ratio [19]: 0.014; Ratio [20]: 0.192
6 | O=C(C1CCCCC1)N1CC(=O)N2CCc3ccccc3C2C1 (stereo not given) [PRAZIQUANTEL] | > 133 µM | > 133 µM | > 133 µM | 67.1 µM | AUC at 8 h [21]: 50.4 µM·h; Ratio [22]: 0.094; concentration at 8 h [23]: 6300 nM
